From article PMC7570694, “Design, Synthesis, and Structure–Activity Relationships of Thiazole Analogs as Anticholinesterase Agents for Alzheimer’s Disease” (Molecules, 2020) come the findings set out here.

In test [1] the target is T1, AChE (Electrophorus electricus, UniProt O42275). The test can be described thus: AChE inhibition, modified Ellman spectrophotometric method. It is filed as biochemical. To be noted: for inhibition at 10 µM: read-out: AChE % Inhibition 10^-5 M; for inhibition at 1 µM: read-out: AChE % Inhibition 10^-6 M; for inhibition at 0.1 µM: read-out: AChE % Inhibition 10^-7 M; for inhibition at 0.01 µM: read-out: AChE % Inhibition 10^-8 M; for inhibition at 0.001 µM: read-out: AChE % Inhibition 10^-9 M; for inhibition at 1000 µM: read-out: AChE % Inhibition 10^−3 M; for inhibition at 100 µM: read-out: AChE % Inhibition 10^−4 M. As to the method:
(§1) The reagents and materials used in the enzyme inhibition assay were supplied commercially from Sigma-Aldrich (St. Louis, MO, USA) and Fluka (Steinheim, Germany). The cholinesterase enzyme inhibition procedure was applied as previously reported in our research papers.
(§2) Moreover, the IC50 values were calculated with the help of GraphPad ‘PRISM’ software (version 5.0) by using a dose–response curve achieved by plotting the percentage inhibition versus the log concentration.
(§3) All of the attained 3-((2-(4-(4-(trifluoromethyl)phenyl)thiazol-2-yl)hydrazineylidene)methyl)-substituedphenyl derivatives were investigated with regard to their ability to inhibit the activity of cholinesterase enzymes using the in vitro modified Ellman’s spectrophotometric method previously described.
(§4) Therefore, the IC50 values of the selected compounds and reference agents were calculated.

The target of test [2] is BChE (Equus caballus, UniProt P81908). The test can be described thus: biochemical. The settings on record: mean ± SD; for inhibition at 1000 µM: read-out: BChE % Inhibition 10^−3 M, compound at 10^−3 M; for inhibition at 100 µM: read-out: BChE % Inhibition 10^−4 M, compound at 10^−4 M. As to the method: as §1, §2, §3, §4
For test [3], the target named is T1, AChE. Nature of the test: Kinetic studies of AChE inhibition (Lineweaver–Burk plots, substrate ATC). In kind it is biochemical. To be noted: Lineweaver–Burk plot; IC50/2, IC50, 2xIC50; ATC 600–18.75 µM.
Method: For this purpose, this compound was prepared at different concentrations (IC50, 2xIC50 and IC50/2). […] The Ki values of the compound were easily calculated from the second plot with a common intercept on the x-axis (corresponding to −Ki).
Enzyme kinetics studies were conducted to determine the mechanism of inhibition of AChE using a procedure similar to that of the inhibition assay for cholinesterase enzymes. […] Linear Lineweaver–Burk graphs were used to estimate the type of inhibition of this compound.
According to the Lineweaver–Burk plots, the type of inhibition consists of two general classes: reversible or irreversible.

Structures are written as SMILES.

Sequence of BChE (P81908 whole entry): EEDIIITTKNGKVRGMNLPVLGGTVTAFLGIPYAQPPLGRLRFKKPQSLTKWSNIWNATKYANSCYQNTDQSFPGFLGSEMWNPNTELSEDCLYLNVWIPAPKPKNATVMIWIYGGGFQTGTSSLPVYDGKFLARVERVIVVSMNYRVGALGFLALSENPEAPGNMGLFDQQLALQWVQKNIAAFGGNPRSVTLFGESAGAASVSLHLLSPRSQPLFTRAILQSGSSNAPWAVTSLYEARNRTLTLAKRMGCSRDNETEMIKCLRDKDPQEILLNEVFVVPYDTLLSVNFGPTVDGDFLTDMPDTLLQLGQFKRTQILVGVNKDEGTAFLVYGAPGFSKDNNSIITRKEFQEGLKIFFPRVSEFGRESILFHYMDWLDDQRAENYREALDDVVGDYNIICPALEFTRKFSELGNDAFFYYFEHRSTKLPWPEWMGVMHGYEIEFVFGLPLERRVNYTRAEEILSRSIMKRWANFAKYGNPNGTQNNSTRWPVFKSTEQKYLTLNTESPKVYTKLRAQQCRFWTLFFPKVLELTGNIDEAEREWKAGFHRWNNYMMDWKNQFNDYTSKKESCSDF
T1 sequence (O42275 24-633): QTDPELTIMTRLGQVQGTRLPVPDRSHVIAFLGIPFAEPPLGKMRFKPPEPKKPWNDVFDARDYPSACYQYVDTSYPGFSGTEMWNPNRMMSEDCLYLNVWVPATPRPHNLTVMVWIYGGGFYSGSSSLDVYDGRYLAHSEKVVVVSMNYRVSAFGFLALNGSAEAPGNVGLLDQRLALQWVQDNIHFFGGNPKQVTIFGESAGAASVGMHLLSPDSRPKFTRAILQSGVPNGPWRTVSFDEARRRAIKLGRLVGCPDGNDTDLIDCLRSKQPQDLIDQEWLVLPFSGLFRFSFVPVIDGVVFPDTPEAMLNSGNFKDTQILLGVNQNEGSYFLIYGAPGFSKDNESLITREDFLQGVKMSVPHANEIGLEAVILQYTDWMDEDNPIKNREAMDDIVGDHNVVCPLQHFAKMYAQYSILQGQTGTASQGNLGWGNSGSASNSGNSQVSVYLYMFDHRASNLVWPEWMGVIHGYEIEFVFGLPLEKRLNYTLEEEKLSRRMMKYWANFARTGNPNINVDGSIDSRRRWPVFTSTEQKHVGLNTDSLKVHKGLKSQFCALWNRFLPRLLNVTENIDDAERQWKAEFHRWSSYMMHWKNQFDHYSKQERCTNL

Regarding `Oc1cccc(C=NNc2nc(-c3ccc(C(F)(F)F)cc3)cs2)c1` [2a, 3-[(2-{4-[4-(Trifluoromethyl)phenyl]thiazol-2-yl}hydrazineylidene)methyl]phenol], in test [1], the inhibition – broadly, the percentage by which the read-out fell short of the control – at 10 µM was 81.2%; the inhibition at 1 µM is 74.2%; the inhibition at 0.1 µM was found to be 61%; the inhibition at 0.01 µM was 41.3%. Also, in test [1], the inhibition at 0.001 µM was determined as 20.4%, the inhibition at 1000 µM stood at 93.4 ± 1.65% and the inhibition at 100 µM is 90.5 ± 1.32%. In addition, in test [2], the inhibition at 1000 µM is more than 50% and the inhibition at 100 µM stood at 42.5 ± 0.978%.
As for `Oc1ccc(C=NNc2nc(-c3ccc(C(F)(F)F)cc3)cs2)cc1` [2b, 4-[(2-{4-[4-(Trifluoromethyl)phenyl]thiazol-2-yl}hydrazineylidene)methyl]phenol], in test [1], the inhibition at 10 µM amounted to 74.6%, the inhibition at 1 µM was 63.8%, the inhibition at 0.1 µM was determined as 58% and the inhibition at 0.01 µM was determined as 43.9%. In test [1], the inhibition at 0.001 µM stood at 21.2%, the inhibition at 1000 µM amounted to 90.3 ± 1.45% and the inhibition at 100 µM amounted to 82.2 ± 1.48%. Moreover, in test [2], the inhibition at 1000 µM is more than 50% and the inhibition at 100 µM is 40.5 ± 0.71%.
In the case of `Oc1cccc(C=NNc2nc(-c3ccc(C(F)(F)F)cc3)cs2)c1O` [2c, 3-[(2-{4-[4-(Trifluoromethyl)phenyl]thiazol-2-yl}hydrazineylidene)methyl]benzene-1,2-diol], the values for the inhibition at 1000 µM in test [1] and in test [2] were 78.2 ± 1.02% and 43.6 ± 0.955%, respectively. Further, the inhibition at 100 µM amounted to 45.1 ± 0.971% in test [1] and 32.5 ± 0.721% in test [2].
Consider `COc1ccccc1C=NNc1nc(-c2ccc(C(F)(F)F)cc2)cs1` [2d, 2-[2-(2-Methoxybenzylidene)hydrazineyl]-4-[4-(trifluoromethyl)phenyl]thiazole], for which, in test [1], the “AChE inhibition profile in words” value is “moderate”, the inhibition at 10 µM was found to be 78.1%, the inhibition at 1 µM stood at 67.3% and the inhibition at 0.1 µM was 55.9%. Besides, in test [1], the inhibition at 0.01 µM turned out to be 38.2%, the inhibition at 0.001 µM turned out to be 29.8%, the inhibition at 1000 µM was determined as 89.5 ± 2.04% and the inhibition at 100 µM turned out to be 82.4 ± 1.7%. Moreover, in test [2], the inhibition at 1000 µM is more than 50% and the inhibition at 100 µM came to 43.8 ± 0.895%.
With `COc1cccc(C=NNc2nc(-c3ccc(C(F)(F)F)cc3)cs2)c1` [2e, 2-[2-(3-Methoxybenzylidene)hydrazineyl]-4-[4-(trifluoromethyl)phenyl]thiazole], in test [1], the inhibition at 10 µM was found to be 81.8%, the inhibition at 1 µM was 74.8%, the inhibition at 0.1 µM worked out at 62.4% and the inhibition at 0.01 µM is 44.3%. For the same compound, in test [1], the inhibition at 0.001 µM is 21.6%, the inhibition at 1000 µM worked out at 90.6 ± 1.81% and the inhibition at 100 µM came to 85.4 ± 1.73%. Also, in test [2], the inhibition at 1000 µM is more than 50% and the inhibition at 100 µM worked out at 41.6 ± 0.907%.
On to `COc1cccc(C=NNc2nc(-c3ccc(C(F)(F)F)cc3)cs2)c1OC` [2f, 2-[2-(2,3-Dimethoxybenzylidene)hydrazineyl]-4-[4-(trifluoromethyl)phenyl]thiazole], for which, in test [1], the inhibition at 1000 µM is 71.7 ± 1.4% and the inhibition at 100 µM amounted to 40.5 ± 0.89%. Also, in test [2], the inhibition at 1000 µM was determined as 40.9 ± 0.895% and the inhibition at 100 µM came to 31.5 ± 0.82%.
As for `COc1ccc(C=NNc2nc(-c3ccc(C(F)(F)F)cc3)cs2)cc1OC` [2g, 2-[2-(3,4-Dimethoxybenzylidene)hydrazineyl]-4-[4-(trifluoromethyl)phenyl]thiazole], in test [1], the inhibition at 10 µM is 81.5%, the inhibition at 1 µM is 76.9%, the inhibition at 0.1 µM was determined as 69.2% and the inhibition at 0.01 µM was found to be 43.1%. In test [1], the inhibition at 0.001 µM is 24.9%, the inhibition at 1000 µM was determined as 93.5 ± 1.63% and the inhibition at 100 µM turned out to be 88.3 ± 1.6%. Further, in test [2], the inhibition at 1000 µM is more than 50% and the inhibition at 100 µM was 40.4 ± 0.845%.
As for `FC(F)(F)c1ccc(-c2csc(NN=Cc3ccc4c(c3)OCO4)n2)cc1` [2h, 2-[2-(Benzo[1,3]dioxol-5-ylmethylene)hydrazineyl]-4-[4-(trifluoromethyl)phenyl]thiazole], in test [1], the inhibition at 1000 µM is 77.6 ± 1.76% and the inhibition at 100 µM amounted to 41.9 ± 0.976%. Moreover, in test [2], the inhibition at 1000 µM came out at 45.8 ± 0.926% and the inhibition at 100 µM stood at 34.3 ± 0.738%.
For `COc1ccc(C=NNc2nc(-c3ccc(C(F)(F)F)cc3)cs2)cc1O` [2i, 2-Methoxy-5-[(2-{4-[4-(trifluoromethyl)phenyl]thiazol-2-yl}hydrazineylidene)methyl]phenol], the “type of inhibition of AChE” value in test [3] is “reversible and mixed-type”. Besides, in test [1], the inhibition at 10 µM was determined as 86.6%, the inhibition at 1 µM was 81%, the inhibition at 0.1 µM was found to be 71.8% and the inhibition at 0.01 µM was 42.7%. In test [1], the inhibition at 0.001 µM stood at 22.2%, the inhibition at 1000 µM worked out at 95.2 ± 1.5% and the inhibition at 100 µM turned out to be 92.1 ± 1.8%. In test [2], the inhibition at 1000 µM was more than 50% and the inhibition at 100 µM is 41.5 ± 0.87%.
Turning to `COc1ccc(O)c(C=NNc2nc(-c3ccc(C(F)(F)F)cc3)cs2)c1` [2j, 4-Methoxy-2-[(2-{4-[4-(trifluoromethyl)phenyl]thiazol-2-yl}hydrazineylidene)methyl]phenol], in test [1], the “AChE inhibition profile in words” value was “moderate”, the inhibition at 10 µM worked out at 76.8%, the inhibition at 1 µM was 62.1% and the inhibition at 0.1 µM is 57.4%. For the same compound, in test [1], the inhibition at 0.01 µM came to 40.7%, the inhibition at 0.001 µM came to 25.6%, the inhibition at 1000 µM was 91.3 ± 2.11% and the inhibition at 100 µM stood at 84.9 ± 1.37%. In test [2], the inhibition at 1000 µM was more than 50% and the inhibition at 100 µM was found to be 39.6 ± 0.865%.
Turning to `COc1cc(C=NNc2nc(-c3ccc(C(F)(F)F)cc3)cs2)cc(OC)c1OC` [2k, 4-[4-(Trifluoromethyl)phenyl]-2-[2-(3,4,5-trimethoxybenzylidene)hydrazineyl]thiazole], the inhibition at 1000 µM in test [1] turned out to be 65.3 ± 1.04%; in test [2], 40.2 ± 0.902%. Moreover, the inhibition at 100 µM was found to be 40.8 ± 0.94% in test [1] and 25.6 ± 0.633% in test [2].
In the same order, the values of `COc1cc(C=NNc2nc(-c3ccc(C(F)(F)F)cc3)cs2)cc(OC)c1O` [2l, 2,6-Dimethoxy-4-[(2-{4-[4-(trifluoromethyl)phenyl]thiazol-2-yl}hydrazineylidene)methyl]phenol] are 62.8 ± 1.28%, 38.7 ± 0.815%, 35.4 ± 0.895% and 23.2 ± 0.759%.
